Test results as given in ChEMBL document CHEMBL3120127, “2,4-Diaminothienopyrimidines as orally active antimalarial agents” (J Med Chem, 2014).
Converted amounts (≈) assume the structure as drawn.

What was measured:
[1] = Solubility of the compound in 0.01 M HCl at pH 2; format: physicochemical
[2] = Solubility of the compound in phosphate buffer at pH 6.5 by HPLC-DAD-MS analysis; format: physicochemical
physchem = details: octanol/water, pH 7.4
[3] = Solubility of the compound in phosphate buffer at pH 6.5 by nephlometric analysis; format: physicochemical
[4] = Volume of distribution at steady state in Sprague-Dawley rat plasma at 4 mg/kg, iv; format: ADME, organism-based; set-up: dose 4 mg/kg, route intravenous; details: read-out: Vdss
[5] = Oral bioavailability in Sprague-Dawley rat at 19 mg/kg; format: ADME, organism-based; details: in vivo
Rattus norvegicus [6] = assay: AUC (0 to infinity) in Sprague-Dawley rat at 19 mg/kg, po; format: ADME, organism-based, Plasma; set-up: time infinity, dose 19 mg/kg, route oral; details: in vivo
Rattus norvegicus [7] = assay: Tmax in Sprague-Dawley rat at 19 mg/kg, po; format: ADME, organism-based; set-up: dose 19 mg/kg, route oral; details: in vivo
Rattus norvegicus [8] = assay: Cmax in Sprague-Dawley rat at 19 mg/kg, po; format: ADME, organism-based; set-up: dose 19 mg/kg, route oral; details: in vivo
[9] = AUC (0 to infinity) in Sprague-Dawley rat at 4 mg/kg, iv; format: ADME, organism-based; set-up: dose 4 mg/kg, route intravenous, time infinity; details: plasma
[10] = Volume of distribution at steady state in Sprague-Dawley rat blood at 4 mg/kg, iv; format: ADME, organism-based; set-up: dose 4 mg/kg, route intravenous; details: read-out: Vdss
[11] = Plasma concentration in Swiss outbred mouse infected with Plasmodium berghei at 50 mg/kg, po measured at 24 hrs; format: ADME, organism-based; set-up: dose 50 mg/kg, route oral
[12] = Plasma concentration in Swiss outbred mouse infected with Plasmodium berghei at 50 mg/kg, po measured at 1 hr; format: ADME, organism-based; set-up: dose 50 mg/kg, route oral
[13] = Plasma concentration in Swiss outbred mouse infected with Plasmodium berghei at 50 mg/kg, po measured at 4 hrs; format: ADME, organism-based; set-up: dose 50 mg/kg, route oral

solubility [1] | solubility [2] | chromatographic logD (physchem) | solubility kinetic [3] | Compound | further results
214 µg/mL (≈ 658 µM) | 203 µg/mL (≈ 624 µM) | – | – | CNc1nc(NCCCN(C)C)c2oc(-c3ccccc3)cc2n1 | –
12.5 µg/mL (≈ 29.3 µM) | – | 3 | 12.5 µg/mL (≈ 29.3 µM) | CNc1nc(NCCCN(C)C)c2sc(-c3ccc(N4CCOCC4)cc3)cc2n1 | –
180 µg/mL (≈ 440 µM) | 160 µg/mL (≈ 391 µM) | – | – | CNc1nc(NCCCN(C)C)c2sc(-c3cccc(C(F)(F)F)c3)cc2n1 | –
> 100 µg/mL | – | 2.8 | 25 µg/mL (≈ 67.1 µM) | CNc1nc(NCCCN(C)C)c2sc(-c3ccc(OC)nc3)cc2n1 | –
> 100 µg/mL | – | 2.2 | > 100 µg/mL | CNc1nc(NCCCN(C)C)c2sc(-c3ccccc3)cc2n1 | Vd [4]: 139 L/kg; bioavailability [5]: 34%; AUC (Rattus norvegicus [6]): 125 µM·min; Tmax (Rattus norvegicus [7]): 1.75 h; Cmax (Rattus norvegicus [8]): 8 nM; AUC(0-inf) [9]: 1.28 µM·h; Vd [10]: 37 L/kg
214 µg/mL (≈ 623 µM) | 194 µg/mL (≈ 565 µM) | – | – | CNc1nc(NCCCN(C)C)c2sc(-c3cncnc3)cc2n1 | –
217 µg/mL (≈ 532 µM) | 191 µg/mL (≈ 469 µM) | – | – | CNc1nc(NCCCN(C)C)c2sc(-c3ccc(-n4cccn4)cc3)cc2n1 | –
> 100 µg/mL | – | – | 50 µg/mL (≈ 136 µM) | CNc1nc(NCCCN(C)C)c2sc(-c3ccc(C#N)cc3)cc2n1 | –
> 100 µg/mL | – | 2.9 | 25 µg/mL (≈ 68.2 µM) | CNc1nc(NCCCN(C)C)c2sc(-c3cccc(C#N)c3)cc2n1 | –
> 100 µg/mL | – | 4.6 | > 100 µg/mL | CNc1nc(NCCCN(C)C)c2sc(-c3ccc(OC(F)(F)F)cc3)cc2n1 | –
> 100 µg/mL | – | 2.3 | 12.5 µg/mL (≈ 35.1 µM) | CNc1nc(NCCCN(C)C)c2sc(-c3ccc(N)cc3)cc2n1 | –
> 100 µg/mL | – | 2.1 | 25 µg/mL (≈ 57.5 µM) | CNc1nc(NCCCN(C)C)c2sc(-c3ccc(NS(C)(=O)=O)cc3)cc2n1 | –
216 µg/mL (≈ 633 µM) | 184 µg/mL (≈ 539 µM) | – | – | CNc1nc(NCCCN(C)C)c2cc(-c3ccccc3)sc2n1 | –
– | – | – | – | CNc1nc(NCCCN(C)C)c2sc(-c3ccc(F)cc3)cc2n1 | concentration at 24 h [11]: 40 nM; concentration at 1 h [12]: 140 nM; concentration at 4 h [13]: 90 nM
> 100 µg/mL | – | 2.2 | 25 µg/mL (≈ 55 µM) | CNc1nc(NCCCN(C)C)c2sc(-c3ccc(C(=O)N4CCOCC4)cc3)cc2n1 | –
> 100 µg/mL | – | 3.5 | 12.5 µg/mL (≈ 29.4 µM) | CNc1nc(NCCCN(C)C)c2sc(-c3ccc(N4CCNCC4)cc3)cc2n1 | –
240 µg/mL (≈ 586 µM) | 177 µg/mL (≈ 432 µM) | 4.1 | – | CNc1nc(NCCCN(C)C)c2sc(-c3ccc(C(F)(F)F)cc3)cc2n1 | concentration at 24 h [11]: 210 nM; concentration at 1 h [12]: 410 nM; concentration at 4 h [13]: 220 nM
221 µg/mL (≈ 667 µM) | 203 µg/mL (≈ 612 µM) | – | – | CNc1nc(NCCCN(C)C)c2sc(-c3ccoc3)cc2n1 | –
> 100 µg/mL | – | 2.9 | 12.5 µg/mL (≈ 32.6 µM) | CNc1nc(NCCCN(C)C)c2sc(-c3ccc(C(C)=O)cc3)cc2n1 | –
> 100 µg/mL | – | 4.3 | > 100 µg/mL | CNc1nc(NCCCN(C)C)c2sc(-c3cccc(OC(F)(F)F)c3)cc2n1 | –
> 100 µg/mL | – | 2.1 | 25 µg/mL (≈ 59.6 µM) | CNc1nc(NCCCN(C)C)c2sc(-c3ccc(S(C)(=O)=O)cc3)cc2n1 | –
> 100 µg/mL | – | 3 | 12.5 µg/mL (≈ 30.5 µM) | CNc1nc(NCCCN(C)C)c2sc(-c3ccc(C(F)(F)F)nc3)cc2n1 | –
> 100 µg/mL | – | 3.3 | 25 µg/mL (≈ 65.2 µM) | CNc1nc(NCCCN(C)C)c2sc(-c3ccc4nonc4c3)cc2n1 | –
186 µg/mL (≈ 390 µM) | 130 µg/mL (≈ 272 µM) | – | – | CNc1nc(NCCCN(C)C)c2sc(-c3cc(C(F)(F)F)cc(C(F)(F)F)c3)cc2n1 | –
> 100 µg/mL | – | 4.5 | > 100 µg/mL | CNc1nc(NCCCN(C)C)c2sc(-c3ccc(C(F)(F)F)cc3Cl)cc2n1 | –
